Legend:
[1] = target: T1, protein-protein interaction between hSOS1 and hKRASG12C (Homo sapiens, UniProt Q07889); test: KRAS-SOS1 interaction assay (HTRF); type: binding; details: GST-hSOS1 564-1049aa, HIS-hKRASG12C, read-out: KRAS-SOS1 Interaction inhibition IC50
T1 construct: GST-hSOS1, 564-1049aa expressed and purified in-house
T1 sequence (Q07889 564-1049): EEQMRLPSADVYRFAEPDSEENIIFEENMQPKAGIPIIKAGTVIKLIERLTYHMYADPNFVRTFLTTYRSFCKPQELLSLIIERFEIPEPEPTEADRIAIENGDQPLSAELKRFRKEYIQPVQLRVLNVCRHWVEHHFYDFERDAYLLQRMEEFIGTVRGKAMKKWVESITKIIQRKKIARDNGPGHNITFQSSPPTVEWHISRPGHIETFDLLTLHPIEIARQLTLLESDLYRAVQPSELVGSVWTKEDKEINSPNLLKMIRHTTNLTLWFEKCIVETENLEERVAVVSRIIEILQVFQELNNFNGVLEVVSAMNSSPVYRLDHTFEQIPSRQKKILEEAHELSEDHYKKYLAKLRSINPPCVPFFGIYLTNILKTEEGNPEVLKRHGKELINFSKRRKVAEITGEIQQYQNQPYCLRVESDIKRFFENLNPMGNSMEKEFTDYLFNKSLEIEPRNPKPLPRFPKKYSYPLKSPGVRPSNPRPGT
How it was run: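 GST-hSOS1 (564-1049aa) at 10-50 nM working solution pre-incubated with compounds 10 min at 20° C in HEPES pH 7.4 buffer with EDTA, DTT, BSA and Igepal. HIS-hKRASG12C (100-300 nM working solution) added for 30-60 min, then anti-GST-d2/anti-HIS-Tb detection; percent inhibition from the 665/620 nm ratio.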

[2] = target: T2, nucleotide exchange on hKRASG12C mediated by hSOS1 (Homo sapiens, UniProt Q07889); test: Guanine nucleotide exchange assay (GNEA, HTRF); type: biochemical; details: HIS-hSOS1 564-1049aa mediated GTP loading onto GST-hKRASG12C 1-169aa, read-out: Guanine nucleotide exchange inhibition IC50
T2 construct: HIS-hSOS1, 564-1049aa mediated GTP loading onto GST-hKRASG12C; His (N); made in house
T2 sequence (Q07889 564-1049): T1 sequence (Q07889 564-1049)
How it was run: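 Compounds were pre-incubated 10 min at 20 °C with HIS-hSOS1 (564-1049aa) and EDA-GTP-DY-647P1 (working solution 10-50 nM and 200 nM) in pH 7.4 HEPES with NaCl, MgCl2, DTT, BSA and Igepal. GST-hKRASG12C (1-169aa, 25-125 nM working solution) plus anti-GST-Tb was added for 30-60 min at 20 °C. Percent inhibition came from the HTRF 665/620 nm ratio.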

[3] = test system: pERK after EGF stimulation in DLD1 cells; test: ERK phosphorylation assay (alphascreen pERK); type: cell-based; details: Homo sapiens, DLD-1, 2 h compound, 200 ng/ml hEGF for 5 minutes, read-out: ERK phosphorylation inhibition IC50
How it was run: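 DLD1 cells pretreated with test compounds for 2 h, then stimulated with 200 ng/ml hEGF for 5 min. Lysates assayed by AlphaScreen SureFire for ERK1/2 p-T202/Y204, read after 2 h at 25–28 °C. % inhibition relative to the stimulated-minus-unstimulated vehicle window.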

[4] = test system: MIA PaCa-2 human pancreatic cancer xenograft; test: MIA PaCa-2 xenograft efficacy study; type: in vivo; details: b.i.d., p.o., nude mice
Method: In vivo efficacy of compounds 68, 101b at a dose of 30 mg/kg, b.i.d., p.o. and compound 81 at a dose of 50 mg/kg, b.i.d., p.o., was evaluated in MIA PaCa-2 human pancreatic cancer xenograft model in nude mice.
MIA PaCa-2 tumor fragments were implanted subcutaneously in the right flank region of nude mice. Tumor-bearing mice were randomized once the tumors reached an average volume of ~141-142 mm^3 (tumor volume range 72-242 mm^3).
To assess the efficacy of compound 81, the tumor-bearing mice were randomized once the tumors reached an average volume of ~181-183 mm^3 (tumor volume range 73-251 mm^3). The mice were divided into the following groups (n=8/group): Vehicle control and compound 81 (50 mg/kg, b.i d., p.o.).

SMILES	IC50 [1]	IC50 [2]	IC50 [3]	tumor growth inhibition ([4]; 30 mg/kg)	tumor growth inhibition ([4]; 50 mg/kg)
Cc1nc(N[C@H](C)c2cccc(C(F)(F)C(C)(C)O)c2F)c2cc3c(cc2n1)C(C)(C)C(=O)N3C [Compound 68, (R)-4-((1-(3-(1,1-Difluoro-2-hydroxy-2-methylpropyl)-2-fluorophenyl)ethyl)amino)-2,6,8,8-tetramethyl-6,8-dihydro-7H-pyrrolo[2,3-g]quinazolin-7-one]	1 to 10 nM	1 to 30 nM	1 to 200 nM	63.82%	–
Cc1nc(N[C@H](C)c2cccc(C(F)(F)C(C)(C)O)c2F)c2cc3c(cc2n1)N(C)C(=O)C3(C)C [Compound 81, (R)-4-((1-(3-(1,1-difluoro-2-hydroxy-2-methylpropyl)-2-fluorophenyl)ethyl)amino)-2,6,6,8-tetramethyl-6,8-dihydro-7H-pyrrolo[3,2-g]quinazolin-7-one]	1 to 10 nM	1 to 30 nM	1 to 200 nM	–	67.68%

From patent US20260209247A1, “Substituted Tricyclic Compounds” (Lupin Limited, priority 2019, published 2026)
